Laboratory results published in patent US20140113904A1, “TREATMENT OF CANCER WITH TOR KINASE INHIBITORS” (SIGNAL PHARMACEUTICALS, LLC, priority 2012, published 2014).

Tests used:
[1] = test system: PRAS40(T246); assay: Phospho-PRAS40(T246) in PC3 cell lysates, Luminex multiplex; assay type: cell-based, human; conditions: PC3, 1 hour exposure; read-out: p-PRAS40 (T246) IC50
Excerpt: (§1) The direct substrate for TORC1 was 4E-BP 1(T46) and indirect downstream substrate was S6RP(S235/S236). The direct substrate for TORC2 was Akt(S473) and indirect downstream substrates measured were GSK3β(S9) and PRAS40(T246). Additionally, the phosphorylation status of Akt(T308), a phosphorylation site for PDK1 was monitored.
(§2) The multiplex Luminex assay format differs from conventional enzyme-linked immunosorbent assay (ELISA) in that the multiplex capture antibody is attached to a polystyrene bead whereas the ELISA capture antibody is attached to the microplate well. The use of the suspension bead-based technology enables the multiplexing capabilities of the Luminex assays. The xMAP® technology uses 5.6 micron polystyrene microspheres, which are internally dyed with red and infrared fluorophores of differing intensities. Each bead is given a unique number, or bead region, allowing differentiation of one bead from another. Beads covalently bound to different specific antibodies can be mixed in the same assay, utilizing a 96-well microplate format. At the completion of the sandwich immunoassay, beads can be read, using the Luminex 100™ or Luminex 200 detection system, in single-file by dual lasers for classification and quantification of each analyte. […]

[2] = Mouse plasma protein binding; assay type: in vitro ADME; conditions: Compound 1
[3] = test system: PC3 cells; assay: WST-1 cell proliferation assay (Compound 1, rapamycin); assay type: cell-based, human; conditions: read-out: Compound 1 Growth Inhibition IC50; PC3, 3 days
Method: All test wells were in triplicate on the plate and in a final volume of 200 μL. The final concentration of DMSO in all wells was 0.2%. […] All growth inhibition experiments were repeated on different occasions at least twice. Potency was determined from calculating the IC50 value from the data describing the growth inhibition curve. A reference compound was included in each plate assay to monitor inter-assay variation and the IC50 from the reference was used as part of the acceptance criteria for the assay.
Next, compound was added to the designated well at a dilution of 1:10 (i.e., 20 μL of the diluted compound was added to 180 μL of culture media in each well). The final dilution of compound was 1:500 which yielded a final DMSO concentration of 0.2% in each well. All concentrations were performed in triplicate. […] Absorbance was measured at 450 nm on the VICTOR™ X2 multilabel plate reader (PerkinElmer).
Raw data was saved as a text file and then entered into Activity Base (Cell-based SAR; Prolif-MTT, MTT-6pt-5plates unfixed fit. Version2). The software (XLfit from IDBS) calculated the percent inhibition at each compound concentration by normalizing to the DMSO control values for each set of triplicate wells. Percent inhibition curves were plotted and IC50 values calculated.
All data was analyzed using XLfit from IDBS. […]

[4] = test system: 4E-BP1(T46); assay: Phospho-4E-BP1(T46) in PC3 cell lysates, Luminex multiplex; assay type: cell-based, human; conditions: PC3, 1 hour exposure; read-out: p-4E-BP1(T46) IC50
Excerpt: as §1, §2

[5] = test system: pDNA-PK (S2056); assay: pDNA-PK (S2056) immunohistochemistry in PC3 tumors (Compound 2); assay type: in vivo, SCID mice; conditions: 5 mg/kg QD for 6 days

IC50 [1] [nM] | mouse plasma protein binding [2] [%] | IC50 [3] [nM] | IC50 [4] [nM] | Structure (SMILES) | reduction in threshold area positive for pDNA-PK (S2056) vs vehicle ([5]; 2 hours after the last dose) [%] | inhibition at 5 mg/kg ([5]; Mus musculus, through 24 hours after the last dose, read-out: pDNA-PK (S2056) inhibition (normalized to total DNA-PKcs)) [%]
140 | 88 | 110 | 410 | CO[C@H]1CC[C@H](N2C(=O)CNc3ncc(-c4ccc(C(C)(C)O)nc4)nc32)CC1 [Compound 1, 7-(6-(2-hydroxypropan-2-yl)pyridin-3-yl)-1-((1r,4r)-4-methoxycyclohexyl)-3,4-dihydropyrazino-[2,3-b]pyrazin-2(1H)-one] | – | –
– | – | – | – | CCN1C(=O)CNc2ncc(-c3ccc(-c4nc[nH]n4)nc3C)nc21 [Compound 2, 1-ethyl-7-(2-methyl-6-(1H-1,2,4-triazol-3-yl)pyridin-3-yl)-3,4-dihydropyrazino[2,3-b]pyrazin-2(1H)-one] | 98 | ~90
